Source: patent US20050084872A1 (priority 2003, published 2005)

Experiments:
PPARγ [1] = test: PPARγ efficacy score from expression of the 22-probe efficacy-related gene population in cultured 3T3L1 adipocytes; assay type: cell-based, mouse; conditions: mean over 22 probes of logRatio divided by template logRatio, template = average of Rosiglitazone and {2-[2-(4-phenoxy-2-propylphenoxy)ethyl]-1H-indol-5-yl}acetic acid
Protocol: Twenty four hours after the cells were contacted with one or other of the foregoing agents the cells were harvested and RNA extracted therefrom.
Thus, an efficacy value a PPARγ agonist, or partial agonist, was calculated in the following manner. […] This mean value was the PPARγ efficacy value for the PPARγ agonist, or partial agonist.
A chi-square fitting was also used to calculate the efficacy value for each tested PPARγ agonist, or partial agonist. The chi-square fitting formula used was: [formula]
Where Ri, σRi stand for the logRatio and error for logRatio of the full template. Xi and σXi stand for the logRatio and error for logRatio of the testing compound.
A PPARα agonist was included as a control.

PPARγ [2] = test: PPARγ classifier value from expression of the 303-probe classifier gene population in 3T3L1 adipocyte cell line; assay type: cell-based, mouse; conditions: Phase 3, high dosage (30×EC50), mean over 303 probes of logRatio divided by template logRatio, template = average of two full agonists (Group 1)
Protocol: The overall experiment was conducted in three phases (i.e., in three separate experiments conducted at three different times) as shown in Table 11 below. Three replicates were done for each of the tested compounds in each phase of the experiment.
The other PPARγ agonist, and partial agonist, compounds were used in testing the classifier population of genes. […] The PPARα agonist was included as a control.
The three replicate gene expression profiles within each phase of the experiment were first combined based on the error-weighted average. Expression profiles of two PPARγ full agonists, and four PPARγ partial agonists (in Phase 1) were chosen for classifier training, and were divided into the following two groups:
Group 1: two PPARγ full agonists (5-(4-{2-[methyl(pyridin-2-yl)amino]ethoxy} benzyl)-1,3-thiazolidine-2,4-dione and 5-{4-[2-hydroxy-2-(5-methyl-2-phenyl-1,3-oxazol-4-yl)ethoxy]benzyl}-1,3-thiazolidine-2,4-dione)
The Matlab function ANOVA1 (one-way analysis of variance) was used to calculate the pvalue (hereafter referred to as the ANOVA-pvalue) for the null hypothesis that the means of Group 1 and Group 2 are equal.

SMILES | Efficacy Score (PPARγ [1]) | Classifier Value (PPARγ [2])
CCCc1cc(Oc2ccccc2)ccc1OCCc1cc2cc(CC(=O)O)ccc2[nH]1 [Agonist 1, {2-[2-(4-phenoxy-2-propylphenoxy)ethyl]-1H-indol-5-yl}acetic acid] | 1.033 | 0.881
CN(CCOc1ccc(CC2SC(=O)NC2=O)cc1)c1ccccn1 (stereo not shown) [Rosiglitazone, 5-(4-{2-[methyl(pyridin-2-yl)amino]ethoxy}benzyl)-1,3-thiazolidine-2,4-dione] | 0.967 | 0.850
